No end group written: not given here.
Tests used:
Format in all cases: in vivo, C57b1/6 mice
[1] = tested on: hematopoietic stem cell colony formation of bone marrow cells; test: CFU assay of bone marrow cells from irradiated mice in HSC-CFU media
Source text: (§1) In order to ascertain protective and regenerative effects of Substance-P on bone marrow, 8-week-old C57b1/6 mice were purchased as experimental animals and divided into three groups, each consisting of 6 animals (n=6): two experimental groups (administration of a test drug before and after induction of bone marrow damage) and a control group. For this purpose, bone marrow damage was induced by radiation in animals.
(§2) For the group used to confirm bone marrow-protective effects of Substance-P, 0.1 nmol/g of Substance-P was injected into caudal vein of mice, 1 day prior to radiation. 24 hours later, animals were irradiated with a gamma irradiator at a dose of 4 Gy. 4 hours after irradiation, 0.1 nmol/g of Substance-P diluted in PBS was injected once more into caudal vein of mice. Substance-P was diluted in PBS prior to use thereof.
(§3) For the group used to confirm bone marrow-regenerative effects of Substance-P, 0.1 nmol/g of Substance-P was intravenously administered to caudal veins of mice immediately after animals were irradiated with gamma rays. 24 hours later, Substance-P was intravenously administered once more to animals.
(§4) Bone marrow cells were isolated from animals 3 and 7 days after irradiation. For this purpose, femurs were isolated from mice and defatted to obtain the femoral bones only. A medium was allowed to flow from one end of the bone to the other end thereof using a 26-gauge syringe. This procedure was repeated five times to ensure that bone marrow cells were completely extracted from the bone. The cells were pooled in a tube, and centrifuged at 1500 rpm for 5 min and washed two times with PBS. The viable cell count was performed and compared between the drug-administered groups (administration of Substance-P before and after irradiation) and the non-administered group.
When bone marrow cells and blood cells were prepared, the cells were inoculated onto 35 mm plates at a density of 3×10^3 bone marrow cells/plate and 5×10^6 blood cells/plate, respectively and cultured in hematopoietic stem cell-colony forming unit media (HSC-CFU media, available from Miltenyi). The cells were cultured without change of the culture medium for two weeks while a colony count was performed daily.

[2] = tested on: bone marrow cells; test: Viable bone marrow cell count in gamma-irradiated mice
Source text: as §1, §2, §3, §4

[3] = tested on: blood cells; test: Viable blood cell count in gamma-irradiated mice; conditions: Substance-P administered before or after radiation-induced bone marrow damage
Source text: as §1, §2, §3
Blood cells were isolated from animals 3 and 7 days after irradiation treatment was complete. For this purpose, whole blood (WB) was isolated from abdominal vena cava using a 26-gauge syringe. […]

“Substance P (RPKPQQFFGLM; not fully specified; ends and bridges not checked; UniProt P20366 58-68, looked up) [Substance-P]” was tested, and the “day from which colony formation was observable” value ([1]; Substance-P after irradiation) was 5 post-irradiation day, the “colony count vs non-administered group” value ([1]; Substance-P after irradiation, 2-week culture, 14th post-irradiation day) was “about 3 fold” and the colony formation ([1]; Substance-P after irradiation, 3rd post-irradiation day) was “no colony formation”. For the same substance, the colony count ([1]; Substance-P after irradiation, 7th post-irradiation day) was “significantly increased”, the “colony count vs non-administered group” value ([1]; Substance-P prior to irradiation, 2-week culture, 14th post-irradiation day) was “about 9 fold” and the “colony count vs non-administered group” value ([1]; Substance-P prior to irradiation, 3rd post-irradiation day) was “higher colony counts”. For the same substance, the “colony count vs non-administered group” value ([1]; Substance-P prior to irradiation, 7th post-irradiation day) was “higher colony counts”, the “colony count vs non-administered group” value ([1]; Substance-P prior to irradiation, immediately after irradiation) was “higher colony counts” and the “viable bone marrow cell count vs non-administered group” value ([2]; Substance-P 0.1 nmol/g i.v. 1 day prior to and 4 h after 4 Gy irradiation, 3rd post-irradiation day) was “no significant difference”. The “viable bone marrow cell count vs non-administered group” value ([2]; Substance-P 0.1 nmol/g i.v. 1 day prior to and 4 h after 4 Gy irradiation, after 7 days) was “about two-fold higher”, the “viable bone marrow cell count vs non-administered group” value ([2]; Substance-P 0.1 nmol/g i.v. immediately after irradiation and 24 h later, 3rd post-irradiation day) was “no significant difference” and the “viable bone marrow cell count vs non-administered group” value ([2]; Substance-P 0.1 nmol/g i.v. immediately after irradiation and 24 h later, after 7 days) was “about 2.5 fold”. For the same substance, the “number of blood cells vs non-administered group” value [3] was “significantly higher”.
